Test results as given in ChEMBL document CHEMBL3882736, “Modulation microtubules diseases; antiproliferative agents; antiinflamamtory agents” (2011).

What was measured:
[1] = Cytotoxicity against human PC3 cells assessed as growth inhibition at 20 uM after 40 hrs by MTT assay relative to control; assay type: functional; settings: PC-3, 40 h, read-out: GI
How it was run: (§1)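 Growth inhibition was measured against control in human tumour cells taken in late log phase, each in its own medium with 10% FBS. Cells (90 µL per well, 1.1× final, 50000 to 200,000 cell/mL) were added to 10 µL of compound at 10× final in 96-well plates and incubated 40 hr at 37° C., 5% CO2. Readout used MTT for 6 hours, overnight lysis with SDS/HCl and absorbance at 590 nm.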

[2] = target: T1, Tyrosine-protein kinase JAK3 (Homo sapiens) (UniProt P52333); test: Inhibition of TEL-fused JAK3 kinase domain (2520 to 3469 nucleotide) (unknown origin) expressed in mouse BaF3 cells assessed as decrease in cell growth at 20 uM after 40 hrs by MTT assay relative to control; assay type: cell-based
T1 sequence (whole entry): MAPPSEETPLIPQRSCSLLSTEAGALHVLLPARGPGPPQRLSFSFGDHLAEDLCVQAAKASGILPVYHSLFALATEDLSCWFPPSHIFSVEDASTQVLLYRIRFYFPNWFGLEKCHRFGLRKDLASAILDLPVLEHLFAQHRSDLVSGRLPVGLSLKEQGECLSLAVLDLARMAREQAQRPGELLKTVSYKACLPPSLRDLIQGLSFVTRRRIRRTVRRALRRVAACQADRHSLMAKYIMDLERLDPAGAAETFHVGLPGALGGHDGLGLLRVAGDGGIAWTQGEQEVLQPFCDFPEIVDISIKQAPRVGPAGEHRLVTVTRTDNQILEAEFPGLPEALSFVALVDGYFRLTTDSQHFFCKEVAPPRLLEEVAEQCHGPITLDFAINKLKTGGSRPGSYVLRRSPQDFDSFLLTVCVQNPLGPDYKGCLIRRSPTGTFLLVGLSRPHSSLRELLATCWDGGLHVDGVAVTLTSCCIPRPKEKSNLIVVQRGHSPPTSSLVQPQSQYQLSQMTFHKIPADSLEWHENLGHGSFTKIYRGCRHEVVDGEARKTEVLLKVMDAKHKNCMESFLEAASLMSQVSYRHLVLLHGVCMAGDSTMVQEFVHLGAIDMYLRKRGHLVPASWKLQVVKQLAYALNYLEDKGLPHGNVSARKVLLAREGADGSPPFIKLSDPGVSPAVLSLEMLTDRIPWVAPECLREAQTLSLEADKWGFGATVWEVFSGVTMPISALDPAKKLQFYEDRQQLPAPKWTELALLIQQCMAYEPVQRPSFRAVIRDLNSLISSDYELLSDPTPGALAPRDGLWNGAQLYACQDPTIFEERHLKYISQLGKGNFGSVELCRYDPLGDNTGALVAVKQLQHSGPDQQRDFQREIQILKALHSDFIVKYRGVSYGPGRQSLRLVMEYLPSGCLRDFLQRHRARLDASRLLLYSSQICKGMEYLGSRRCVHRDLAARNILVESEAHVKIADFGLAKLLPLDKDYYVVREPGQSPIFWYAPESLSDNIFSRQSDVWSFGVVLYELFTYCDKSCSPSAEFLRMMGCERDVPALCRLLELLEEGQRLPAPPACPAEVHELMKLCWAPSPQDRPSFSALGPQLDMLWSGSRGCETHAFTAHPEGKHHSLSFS

Tubulin (Homo sapiens) = Tubulin (Homo sapiens) (UniProt P68371+Q9H4B7+P0DPH7+P68366+Q13509+Q71U36+P04350+Q3ZCM7+P07437+P68363+Q9BQE3+Q6PEY2+Q13885+Q9BVA1+Q9BUF5); test: Inhibition of tubulin (unknown origin) polymerization at 50 uM by turbidometric method relative to control; assay type: protein-complex assay
How it was run: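 Compound was incubated at 0° C. with microtubule protein whose origin is not stated. In cuvettes, 1 mM GTP was added and the temperature raised to 37° C. to start polymerisation, and a thermostatically controlled spectrophotometer followed absorbance at 340 nm over time. The values give inhibition of polymerisation as percent relative to control.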

[3] = Cytotoxicity against human DU145 cells assessed as growth inhibition at 20 uM after 40 hrs by MTT assay relative to control; assay type: functional; settings: DU-145, 40 h, read-out: GI; how it was run: as §1
[4] = target: Tyrosine-protein kinase JAK2 (Homo sapiens) (UniProt O60674); test: Inhibition of TEL-fused JAK2 kinase domain (2994 to 3914 nucleotide) (unknown origin) expressed in mouse BaF3 cells assessed as decrease in cell growth at 20 uM after 40 hrs by MTT assay relative to control; assay type: cell-based
[5] = Cytotoxicity against human K562 cells assessed as growth inhibition at 20 uM after 40 hrs by MTT assay relative to control; assay type: functional; settings: K562, 40 h, read-out: GI; how it was run: as §1

Tyrosine-protein kinase JAK2 (Homo sapiens), sequence (O60674 whole entry, the tested form may be a part): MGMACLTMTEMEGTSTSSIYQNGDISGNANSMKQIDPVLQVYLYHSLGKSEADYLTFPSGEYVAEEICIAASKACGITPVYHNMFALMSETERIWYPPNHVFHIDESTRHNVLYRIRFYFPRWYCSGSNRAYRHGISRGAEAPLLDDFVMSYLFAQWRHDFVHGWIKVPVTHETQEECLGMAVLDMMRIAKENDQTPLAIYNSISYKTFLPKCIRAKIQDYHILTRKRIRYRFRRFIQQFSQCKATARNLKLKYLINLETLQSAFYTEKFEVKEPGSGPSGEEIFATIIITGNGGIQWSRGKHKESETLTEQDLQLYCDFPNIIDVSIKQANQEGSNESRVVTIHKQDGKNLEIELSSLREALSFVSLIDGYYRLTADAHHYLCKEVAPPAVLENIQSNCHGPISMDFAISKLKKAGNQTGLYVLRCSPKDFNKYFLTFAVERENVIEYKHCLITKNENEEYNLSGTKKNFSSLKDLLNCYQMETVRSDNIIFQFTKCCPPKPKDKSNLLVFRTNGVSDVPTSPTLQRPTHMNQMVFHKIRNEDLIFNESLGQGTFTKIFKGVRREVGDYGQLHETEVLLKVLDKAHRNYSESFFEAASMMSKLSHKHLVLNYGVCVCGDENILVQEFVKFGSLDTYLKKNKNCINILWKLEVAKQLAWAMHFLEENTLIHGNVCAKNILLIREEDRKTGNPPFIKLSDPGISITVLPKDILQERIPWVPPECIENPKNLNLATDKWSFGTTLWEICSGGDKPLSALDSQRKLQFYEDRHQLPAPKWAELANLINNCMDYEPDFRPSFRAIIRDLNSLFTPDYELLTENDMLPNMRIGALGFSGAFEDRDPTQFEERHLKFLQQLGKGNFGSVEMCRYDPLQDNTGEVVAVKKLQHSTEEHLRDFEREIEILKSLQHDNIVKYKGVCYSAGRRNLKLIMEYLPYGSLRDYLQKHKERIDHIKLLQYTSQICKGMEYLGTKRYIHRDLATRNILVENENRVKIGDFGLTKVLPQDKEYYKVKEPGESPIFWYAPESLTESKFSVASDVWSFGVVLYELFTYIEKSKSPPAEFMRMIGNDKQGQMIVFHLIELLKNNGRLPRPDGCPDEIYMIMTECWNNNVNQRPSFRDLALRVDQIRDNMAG

SMILES | inhibition of growth at 20 µM [1] [%] | inhibition [2] [%] | inhibition (Tubulin (Homo sapiens)) [%] | inhibition of growth at 20 µM [3] [%] | inhibition [4] [%] | inhibition of growth at 20 µM [5] [%]
CCC[C@H](Nc1cncc(-c2ccc(NC(=O)NC)c(OC)c2)n1)c1ccccn1 | > 50 | > 50 | > 50 | > 50 | > 50 | > 50
CCNC(=O)Nc1ccc(-c2cncc(NC(CCOC)c3ccccc3)n2)cc1OC (centres undefined) | > 50 |  | > 50 |  |  | 
CCCC(Nc1cncc(-c2ccc(OCCCCN3CCCC3)c(OC)c2)n1)c1ccccc1 (centres undefined) | > 50 |  | > 50 |  |  | 
CCC[C@H](Nc1cncc(-c2ccc(NC(=O)NCC)c(OC)c2)n1)c1ccccc1 | > 50 |  | > 50 |  |  | 
CCCC(Nc1cncc(-c2cc(C)c(O)c(C)c2)c1)c1ccccc1 (centres undefined) | > 50 |  | > 50 |  |  | 
CCCC(Nc1cncc(-c2ccc(CN)c(OC)c2)n1)c1cccnc1 (centres undefined) | > 50 |  | > 50 |  |  | 
COc1cc(-c2cc(N[C@@H](C)c3ccccc3)ncn2)ccc1O | > 50 |  | > 50 |  |  | 
CCCC(Nc1cncc(-c2ccc(OCCCN(CC)CC)c(OC)c2)n1)c1ccccc1 (centres undefined) | > 50 |  | > 50 |  |  | 
CCCC(Nc1cncc(-c2ccc(CO)cc2)n1)c1ccccc1 (centres undefined) | > 50 |  | > 50 |  |  | 
CCCC(Nc1cncc(-c2ccc(OCCCCN(CC)CC)c(OC)c2)n1)c1ccccc1 (centres undefined) | > 50 |  | > 50 |  |  | 
CCNC(=O)Nc1ccc(-c2cncc(N[C@@H](CC)c3cccnc3)n2)cc1OC | > 50 |  | > 50 |  |  | 
CCNC(=O)Nc1ccc(-c2ncc(C)c(N[C@@H](CC)c3cccnc3)n2)cc1OC | > 50 |  | > 50 |  |  | 
CCCC(Nc1cncc(-c2ccc(NC(=O)NCC)c(C)c2)n1)c1cccnc1 (centres undefined) | > 50 |  | > 50 |  |  | 
CCC[C@H](Nc1nc(-c2ccc(NC(=O)NCC)c(OC)c2)ncc1C)c1cccnc1 [LEXIBULIN] | > 50 |  | > 50 |  |  | 
CCCC(Nc1cncc(-c2ccc(NC(=O)NCC)c(OC)c2)n1)c1ccccn1 (centres undefined) | > 50 |  | > 50 |  |  | 
CCC[C@H](Nc1cncc(-c2ccc(NC(=O)NCC)c(C)c2)n1)c1cccnc1 | > 50 |  | > 50 |  |  | 
CCCC(Nc1cncc(-c2ccc(CN3CCCC3)cc2)n1)c1ccccc1 (centres undefined) | > 50 |  | > 50 |  |  | 
CCCC(Nc1cncc(-c2ccc(CNC(=O)C3CCCNC3)cc2)n1)c1ccccc1 (centres undefined) | > 50 |  | > 50 |  |  | 
CCCC(Nc1cncc(-c2ccc(OCCCN3CCCC3)c(OC)c2)n1)c1ccccc1 (centres undefined) | > 50 |  | > 50 |  |  | 
CCCC(Nc1cncc(-c2ccc(NC(=O)NCC)c(OC)c2)n1)c1cccnc1C (centres undefined) | > 50 |  | > 50 |  |  | 
CCCC(Nc1cncc(-c2ccc(NC(=O)NCC)c(CC)c2)n1)c1cccnc1 (centres undefined) | > 50 |  | > 50 |  |  | 
CCCC(Nc1cncc(-c2ccc(O)c(OC)c2)c1)c1ccccc1 (centres undefined) | > 50 |  | > 50 |  |  | 
COc1cc(-c2cncc(NC(C)c3cccc(NC(=O)c4ccncc4)c3)n2)ccc1O (centres undefined) |  | > 50 | > 50 | > 50 | > 50 | 
CCCC(Nc1cncc(-c2ccc(OCCCCN)c(OC)c2)n1)c1ccccc1 (centres undefined) | > 50 |  | > 50 |  |  | 
CCCC(Nc1nc(-c2ccc(NC(=O)NCC)c(OC)c2)cnc1C)c1ccccc1 (centres undefined) | > 50 |  | > 50 |  |  | 
CCCC(Nc1cncc(-c2ccc(NC(=O)NCC)c(C)c2)n1)c1cnccc1C (centres undefined) | > 50 |  | > 50 |  |  | 
COc1cc(-c2nccc(N[C@@H](C)c3ccccc3)n2)ccc1O | > 50 |  | > 50 |  |  | 
CCCC(Nc1cncc(-c2ccc(NC(=O)NCCN(C)C)c(OC)c2)n1)c1cccnc1 (centres undefined) | > 50 |  | > 50 |  |  | 
CCC[C@H](Nc1cc(-c2ccc(NC(=O)NCC)c(OC)c2)ncn1)c1cccnc1 | > 50 |  | > 50 |  |  | 
